According to patent US10905744B2, “Pharmaceutical formulations for the oral delivery of peptide drugs” (Cyprumed GmbH, priority 2015, dated 2021):

What was measured:
[1] = Compatibility of absorption enhancers with trace elements: dissolution in aqueous medium, visual examination (Example 1); format: physicochemical
Protocol: Solid dry powder mixtures of desmopressin acetate, zinc sulfate or iron(III) chloride, and different absorption enhancers were prepared and dissolved in 2 ml aqua purificata.

[2] = GLP-1 peptide formulations with SNAC and trace elements: dissolution in aqua purificata, visual (Example 4); format: physicochemical; conditions: liraglutide 1.8 mg/ml, SNAC 20 mg, trace element 2 mg, disodium phosphate dihydrate, 2 ml aqua purificata
Protocol: Compositions comprising a GLP-1 peptide, a complexing agent (disodium phosphate dihydrate), the absorption enhancer N-(8-[2-hydroxybenzoyl]amino)caprylic acid (SNAC) and various trace elements or metal salts were prepared and dissolved in 2 ml of aqua purificata and examined visually.

[3] = target: chymotrypsin (Bos taurus, UniProt P00766); test: Chymotrypsin inhibition, BTPNA substrate, absorbance at 405 nm (Examples 9, 13-19, 23, 24, 27, 30, 31)
Protocol: CuSO4.5H2O dilutions in 10 mM TRIS buffer pH 7 to 10 mM, 5 mM, 2.5 mM 1.25 mM Benzoyl-Tyrosine p-nitroanilide (BTPNA): 0.5 mg/mL BTPNA in Acetone
Study: • (1) 100 μl buffer (10 mM TRIS, pH=7)+50 μl Chymotrypsin Stock+50 μl BTPNA • (2) 80 μl buffer (10 mM TRIS, pH=7)+20 μl CuSO4 stock (10 mM)+50 μl Chymotrypsin Stock+50 μl BTPNA • (3) 80 μl buffer (10 mM TRIS, pH=7)+20 μl CuSO4 dilut. (5 mM)+50 μl Chymotrypsin Stock+50 μl BTPNA • (4) 80 μl buffer (10 mM TRIS, pH=7)+20 μl CuSO4 stock (2.5 mM)+50 μl Chymotrypsin Stock+50 μl BTPNA • (5) 80 μl buffer (10 mM TRIS, pH=7)+20 μl CuSO4 dilut. (1.25 mM)+50 μl Chymotrypsin Stock+50 μl BTPNA
Final copper concentrations: 1 mM, 0.5 mM, 0.25 mM, 0.125 mM.
10 mM CuSO4 and Copper gluconate stock solution were diluted 1:1 with 10 mM TRIS buffer pH 7
Study: • (1) 100 μl buffer (10 mM TRIS, pH=7)+50 μl Chymotrypsin Stock+50 μl BTPNA • (2) 80 μl buffer (10 mM TRIS, pH=7)+20 μl CuSO4 dil. (5 mM)+50 μl Chymotrypsin Stock+50 μl BTPNA • (3) 80 μl buffer (10 mM TRIS, pH=7)+20 μl Copper gluconate dilut. (5 mM)+50 μl Chymotrypsin Stock+50 μl BTPNA • (4) 100 μl Cu-bisglycinate stock (0.5 mM)+50 μl Chymotrypsin Stock+50 μl BTPNA
10 mM CuSO4 stock solution was diluted 1:1 with 10 mM TRIS Puffer pH 7
Study: • (1) 30 μl buffer (10 mM TRIS, pH=7)+20 μl CuSO4 dil. (5 mM)+100 μl Chymotrypsin Stock: 30 min. incubation, then addition of 50 μl BTPNA • (2) 30 μl buffer (10 mM TRIS, pH=7)+100 μl Chymotrypsin Stock: 30 min. incubation, then addition of 20 μl CuSO4 dil. (5 mM)+50 μl BTPNA
Final copper concentration: 0.5 mM
Iron(II)-bisglycinate solution containing 1.86 mM of iron in 10 mM TRIS buffer pH 7 was prepared
Cu(II)-gluconate solution containing 2.0 mM of copper in 10 mM TRIS buffer pH 7 was prepared
Study: • (1) 100 μl buffer (10 mM TRIS, pH=7)+50 μl Chymotrypsin Stock+50 μl BTPNA • (2) 100 μl iron(II)-bisglycinate+50 μl Chymotrypsin Stock+50 μl BTPNA • (3) 100 μl copper(II)-gluconate+50 μl Chymotrypsin Stock+50 μl BTPNA
Values were corrected (subtraction of blank). Inhibition was calculated by setting the absorption value of (1) at each time-point as 100%.
Iron(II)-bisglycinate solution containing 0.46 mM of iron in 10 mM TRIS buffer pH 7 was prepared
Cu(II)- bisglycinate solution containing 0.46 mM of copper in 10 mM TRIS buffer pH 7 was prepared
Study: • (1) 100 μl buffer (10 mM TRIS, pH=7)+50 μl Chymotrypsin Stock+50 μl BTPNA • (2) 100 μl iron(II)-bisglycinate+50 μl Chymotrypsin Stock+50 μl BTPNA • (3) 100 μl copper(II)-bisglycinate+50 μl Chymotrypsin Stock+50 μl BTPNA
Values were corrected (subtraction of blank). Inhibition (%) was calculated by setting the absorption value of (1) at each time-point as 100% degradation.
Values were corrected (subtraction of blank). pH was confirmed to be pH 7 after the experiment.
0.025 mg/ml Chymotrypsin, 0.05 mg/mL Benzoyl-Tyrosine p-nitroanilide (BTPNA). Lauryl glutamate: 0.25 mg/ml; copper (as copper gluconate): 0.035 mg/ml.
0.025 mg/ml Chymotrypsin, 0.05 mg/mL Benzoyl-Tyrosine p-nitroanilide (BTPNA). Lauryl glutamate: 0.25 mg/ml; iron (as iron gluconate): 0.03 mg/ml.
100 μl 50 mM TRIS pH 7+50 μL Chymotrypsin Stock+50 μL BTPNA Stock
50 μl Beta-cyclodextrin+50 μl 50 mM TRIS pH 7+50 μL Chymotrypsin Stock+50 μL BTPNA Stock
50 μl copper gluconate+50 μl 50 mM TRIS pH 7+50 μL Chymotrypsin Stock+50 μL BTPNA Stock
50 μl copper gluconate+50 μl Beta-cyclodextrin+50 μL Chymotrypsin Stock+50 μL BTPNA Stock
50 μl copper gluconate+50 μl trisodium phosphate+50 μL Chymotrypsin Stock+50 μL BTPNA Stock
50 μl iron gluconate+50 μl trisodium phosphate+50 μL Chymotrypsin Stock+50 μL BTPNA Stock
Experiments were carried out at pH 7 in 50 mM TRIS buffer.

[4] = target: T1, trypsin (Bos taurus, UniProt P00760); test: Trypsin inhibition, BAPNA substrate, absorbance at 405 nm (Examples 10-12, 20-22, 25, 26, 28, 29, 33); format: biochemical
T1 construct: gene PRSS1
T1 sequence (P00760 24-246): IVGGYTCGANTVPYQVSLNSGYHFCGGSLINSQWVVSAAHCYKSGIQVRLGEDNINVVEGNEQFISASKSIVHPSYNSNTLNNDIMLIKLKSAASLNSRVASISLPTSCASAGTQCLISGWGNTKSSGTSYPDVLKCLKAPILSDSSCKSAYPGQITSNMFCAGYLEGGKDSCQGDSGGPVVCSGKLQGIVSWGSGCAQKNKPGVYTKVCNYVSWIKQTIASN
Protocol: 100 mg/ml copper gluconate in 50 mM TRIS pH 7; pH was adjusted to pH 7; stock solution was diluted to the following concentrations: 50 mg/ml, 25 mg/ml, 12.5 mg/ml, 5 mg/ml, 6.25 mg/ml, 3.125 mg/ml, 2.5 mg/ml, 1.25 mg/ml, 0.625 mg/ml, 0.313 mg/ml, 0.156 mg/ml and 0.078 mg/ml
0.5 mg/mL Benzoyl-Arginine p-nitroanilide (BAPNA)
100 μl 50 mM TRIS pH 7+50 μL Trypsin Stock+50 μL BAPNA Stock
100 μl Copper solution (according to the above described dilutions)+50 μL Trypsin Stock+50 μL BAPNA Stock
Absorption was measured after 15 minutes at 405 nm.
Values were corrected (subtraction of blank).
100 mg/ml Zinc bisglycinate in 50 mM TRIS pH 7; pH was adjusted to pH 7; stock solution was diluted to the following concentrations: 50 mg/ml and 25 mg/ml
100 μl Zinc solution (according to the above described dilutions)+50 μL Trypsin Stock+50 μL BAPNA Stock
10 mg/ml iron gluconate in 50 mM TRIS pH 7; pH was adjusted to pH 7; stock solution was diluted to the following concentrations: 5 mg/ml, 2.5 mg/ml, 1.25 mg/ml and 0.625 mg/ml
100 μl Iron solution (according to the above described dilutions)+50 μL Trypsin Stock+50 μL BAPNA Stock
Absorption was measured directly at 405 nm.
Benzoyl-Arginine p-nitroanilide (BAPNA): 0.5 mg/ml in 50 mM TRIS pH 7 (centrifuged and supernatant used as stock solution)
Trypsin: […] in 50 mM TRIS pH 7
1 mg/mL iron gluconate in 10 mM TRIS pH 7 (iron content=12%), 0.12 mg/ml iron
12 mg/mL copper lysinate in 10 mM TRIS pH 7 (copper content=3%), 0.12 mg/ml copper
100 μl of the respective salt solution+50 μL Trypsin Stock+50 μL BAPNA Stock
Experiments were carried out at pH 7, 50 mM TRIS.
0.025 mg/ml Trypsin, 0.125 mg/mL Benzoyl-Arginine p-nitroanilide (BAPNA.) Lauryl glutamate:
0.25 mg/ml; copper content (as copper(II)gluconate): 0.035 mg/ml.
Adsorption measurement at 405 nm
0.025 mg/ml Trypsin, 0.125 mg/mL Benzoyl-Arginine p-nitroanilide (BAPNA). lauryl-glutamate:
Absorption measurement at 405 nm
0.025 mg/ml Trypsin, 0.125 mg/mL Benzoyl-Arginine p-nitroanilide (BAPNA). Capryl-glucoside:
Copper sulfate stock solution: 1 mg/ml of copper sulfate was dissolved in 50 mM TRIS pH 7. Copper tartrate stock solution: 1 mg/ml of copper tartrate was dispersed in 50 mM TRIS pH 7 and moderately stirred for 5 minutes. The suspension was then centrifuged at 3′000 rpm for 10 minutes, to separate the insoluble salt. The supernatant was used as stock solution for the experiments.
Zinc orotate stock solution: 1 mg/ml of zinc orotate was dispersed in 50 mM TRIS pH 7 and moderately stirred for 5 minutes. The suspension was then centrifuged at 3′000 rpm for 10 minutes, to separate the insoluble salt. The supernatant was used as stock solution for the experiments.
100 μL of the respective salt solution stock+50 μL Trypsin Stock+50 μL BAPNA Stock
Control: 100 μL of 50 mM TRIS pH 7+50 μL Trypsin Stock+50 μL BAPNA Stock
Final concentrations of protease and substrate were 0.025 mg/ml Trypsin, 0.125 mg/mL
50 μl manganese sulfate+50 μl copper gluconate+50 μL Trypsin Stock+50 μL BAPNA Stock
Absorption measurement at 405 nm; final pH in all solutions was monitored to be pH 7.
3 mg/ml SiO2—suspended in 50 mM TRIS pH 7 and centrifuged; supernatant was used for experiments.
50 μl SiO2+50 μl 50 mM TRIS pH 7+50 μL Trypsin Stock+50 μL BAPNA Stock
50 μl copper gluconate+50 μl SiO2+50 μL Trypsin Stock+50 μL BAPNA Stock
50 μl iron gluconate+50 μl SiO2+50 μL Trypsin Stock+50 μL BAPNA Stock
120 μl 50 mM TRIS pH 7+50 μL Trypsin Stock+50 μL BAPNA Stock
80 μl copper gluconate+40 μl 50 mM TRIS pH 7+50 μL Trypsin Stock+50 μL BAPNA Stock
40 μl copper gluconate+80 μl 50 mM TRIS pH 7+50 μL Trypsin Stock+50 μL BAPNA Stock
80 μl iron gluconate+40 μl 50 mM TRIS pH 7+50 μL Trypsin Stock+50 μL BAPNA Stock
40 μl iron gluconate+80 μl 50 mM TRIS pH 7+50 μL Trypsin Stock+50 μL BAPNA Stock
80 μl iron gluconate+40 μl copper gluconate+50 μL Trypsin Stock+50 μL BAPNA Stock

[5] = desmopressin acetate + FeCl3 5 mg/ml + absorption enhancer 10 mg/ml in 2 ml aqua purificata
[6] = desmopressin acetate + ZnSO4 5 mg/ml + absorption enhancer 10 mg/ml in 2 ml aqua purificata
[7] = Example 16, 0 minutes, metal ion 0.015 mg/ml ([…]), 10 mM TRIS pH 7
[8] = Example 26, 1 mg/ml stocks (supernatant for copper tartrate and zinc orotate), pH 7, 50 mM TRIS, FIG. 17

Dissolution in aqueous medium (2 ml) [1, 5] | Dissolution in aqueous medium (2 ml) [1, 6] | Compound | Dissolution in aqua purificata [2] | also measured
 | Clear solution | O=C(O)CC(O)(CC(=O)O)C(=O)O [Citric acid] |  | 
 |  | O=S(=O)([O-])[O-].[Cu+2] [Copper sulfate] | precipitation | inhibition of chymotrypsin ([3]; Example 9, final copper 1, 0.5, 0.25, 0.125 mM, 10 mM TRIS pH 7, FIG. 2): inhibits the proteolytic enzyme chymotrypsin in a dose dependent manner; influence of copper pre-incubation on chymotrypsin activity ([3]; Example 14, CuSO4, final copper 0.5 mM, 30 min pre-incubation, FIG. 7): increases the chymotrypsin inhibitory activity; trypsin inhibition ([4]; pH 7): strongly inhibited
 |  | NCC(=O)[O-].NCC(=O)[O-].[Cu+2] [Copper-bisglycinate] |  | Inhibition % [3, 7]: 0%
 |  | O=C(O)CN(CCN(CC(=O)O)CC(=O)O)CC(=O)O [EDTA] |  | chymotrypsin inhibition ([3]; Example 18, stocks: copper gluconate 10 mM, EDTA 5 mM, sodium caprylate 4 mg/ml, pH 7, FIG. 9): can inhibit chymotrypsin; effect on chymotrypsin inhibition ([3]; Example 19, EDTA added to a solution of copper gluconate, Tween 20 and sodium caprylate, FIG. 10): positive effect on chymotrypsin inhibition; chymotrypsin inhibition ([3]; Example 31, stocks […] copper(II)gluconate, 1.25 mM EDTA, pH 7, 10 mM TRIS, FIG. 22): can be inhibited
 |  | [Cl][Fe]([Cl])[Cl] [Fe(III)chlorid, iron(III) chloride] | precipitation | 
 |  | NCC(=O)[O-].NCC(=O)[O-].[Fe+2] [Iron bisglycinate] | Clear brownish solution | Inhibition % ([3]; Example 15, 0 minutes, metal ion Fe 0.06 mg/ml (0.92 mM), Cu 0.065 mg/ml (1.0 mM), 10 mM TRIS pH 7): 0%; Inhibition % ([3]; Example 15, 15 minutes, metal ion Fe 0.92 mM, Cu 1.0 mM): 69%; Inhibition % ([3]; Example 15, 30 minutes, metal ion Fe 0.92 mM, Cu 1.0 mM): 62%; Inhibition % ([3]; Example 15, 45 minutes, metal ion Fe 0.92 mM, Cu 1.0 mM): 56%; Inhibition % ([3]; Example 15, 60 minutes, metal ion Fe 0.92 mM, Cu 1.0 mM): 52%; Inhibition % [3, 7]: 0%
Precipitation | Precipitation | CCCCCCCCCC(=O)[O-].[Na+] [Sodium caprate] |  | 
Precipitation | Precipitation | CCCCCCCC(=O)[O-].[Na+] [Sodium caprylate] |  | 
Clear solution | Clear solution | CCCCCCCCCCCCOS(=O)(=O)[O-].[Na+] [Sodium dodecyl sulfate] |  | 
 |  | CC(=O)[O-].CC(=O)[O-].[Zn+2] [Zinc acetate] | precipitation | 
 |  | [Cl-].[Cl-].[Zn+2] [ZnCl2, zinc chloride] | precipitation | 
 |  | O=S(=O)([O-])[O-].[Zn+2] [ZnSO4, zinc sulfate] | precipitation | 
 |  | O=C([O-])C(O)C(O)C(=O)[O-].[Cu+2] (stereo not shown) [copper tartrate] |  | trypsin inhibition [4, 8]: show trypsin inhibitory properties in vitro
 |  | NCCCC[C@H](N)C(=O)O.NCCCC[C@H](N)C(=O)O.[Cu] [copper(II)lysinate] |  | trypsin inhibition ([4]; Example 20, solutions 1 mg/mL iron gluconate, 1 mg/mL copper gluconate, 12 mg/mL copper lysinate, FIG. 11): can be inhibited
Clear solution | Clear solution | CCCCCCCCCCCCO[C@@H]1O[C@H](CO)[C@@H](O[C@H]2O[C@H](CO)[C@@H](O)[C@H](O)[C@H]2O)[C@H](O)[C@H]1O [n-Dodecyl-b-D-maltoside] |  | 
Clear solution | Clear solution | CCCCCCCCO[C@@H]1O[C@H](CO)[C@@H](O)[C@H](O)[C@H]1O [n-Octyl-b-D-glucopyranoside] |  | 
 |  | NCC(=O)[O-].NCC(=O)[O-].[Zn+2] [zinc bisglycinate] |  | inhibition of trypsin ([4]; pH 7): inhibits the proteolytic enzyme trypsin in a dose dependent manner
 |  | Copper orotate | Clear solution | 
 |  | Zinc carnosine | Clear solution | 
 |  | Zinc orotate | Clear solution | trypsin inhibition [4, 8]: show trypsin inhibitory properties in vitro
 |  | Zinc picolinate | Clear solution | 
 |  | lauryl-glutamate |  | trypsin inhibition ([4]; Example 21, lauryl glutamate […], copper […], pH 7, 50 mM TRIS, FIG. 12): can be inhibited; trypsin inhibition ([4]; Example 22, lauryl-glutamate […], iron 0.03 mg/ml, pH 7, 50 mM TRIS, FIG. 13): can be inhibited

Compound | Dissolution in aqueous medium (2 ml) [1, 5] | Dissolution in aqueous medium (2 ml) [1, 6] | Dissolution in aqua purificata [2] | also measured
C[C@H](CCC(=O)O)[C@H]1CC[C@H]2[C@@H]3[C@H](O)C[C@@H]4C[C@H](O)CC[C@]4(C)[C@H]3C[C@H](O)[C@]12C [Cholic acid] | Precipitation | Precipitation |  | 
CCCCCCCCCCCC(=O)OC(CC(=O)O)C[N+](C)(C)C.[Cl-] (stereo not shown) [Lauroyl carnitine HCl] | Clear solution | Clear solution |  | 
C[C@H](CCC(=O)[O-])[C@H]1CC[C@H]2[C@@H]3[C@H](O)C[C@@H]4C[C@H](O)CC[C@]4(C)[C@H]3C[C@H](O)[C@]12C.[Na+] [Sodium cholate] | Precipitation | Precipitation |  | 
